The record followed here is ChEMBL document CHEMBL1201862, “PubChem BioAssay data set” (2004).

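1) Cells in 96-well plates. 2) Compound, 48 h, 5 concentrations. 3) Linear interpolation between surrounding doses. 4) Unreached endpoint = highest concentration. GI50 is the concentration that inhibits growth by half.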 Calls of active or inactive are those of the source. No stated cut-off is given here; in the data, active = GI50 up to about 1.1 µM and inactive = higher. Where only a bound is given, the exact number is not on record here.

Holding throughout (assay): growth of human tumour cells (NCI), 48 h
Experiment [1] concerns SNB-75.
The subject of experiment [2] is K562.
Experiment [3] has as its system NCI-H460.
In experiment [4] the test system is SF-295.
The test system of experiment [5] is NCI-H23.
In experiment [6] the test system is IGROV-1.
For experiment [7], the system named is NCI-H522.
For experiment [8], the system named is NCI-H226.
Experiment [9] concerns SR.
Experiment [10] has as its system HCC 2998.
Experiment [11] deals with OVCAR-5.
Experiment [12] relates to CAKI-1.
Experiment [13] deals with OVCAR-8.
For experiment [14], the system named is TK-10.
The subject of experiment [15] is HCT-15.
The subject of experiment [16] is U-251.
The subject of experiment [17] is MOLT-4.
In experiment [18] the test system is SNB-19.
The test system of experiment [19] is 786-0.
Experiment [20] deals with OVCAR-3.

`C[C@]12C[C@@H](OC(=O)[C@]1(C)O)[C@@H]([C@]1(O)CC[C@H]3[C@@H]4C[C@H]5O[C@]56C[C@H]5O[C@H]5C(=O)[C@]6(C)[C@H]4CC[C@@]31C)C2`: the GI50 in [1] is 36 µM (inactive); in [2], > 50 µM (inactive); in [3] it was > 50 µM (inactive); in [4] it was > 50 µM (inactive); in experiment [5] it was > 50 µM (inactive); in [6] it was > 50 µM (inactive). The GI50 in experiment [7] was > 50 µM (inactive); in experiment [8] it was > 50 µM (inactive); in [9], 14.7 µM (inactive); in experiment [10], > 50 µM (inactive); in experiment [11] it was > 50 µM (inactive); in experiment [12], > 50 µM (inactive). Also, the GI50 in [13] was > 50 µM (inactive); in experiment [14], > 50 µM (inactive); in experiment [15] it was > 50 µM; in experiment [16] it was > 50 µM (inactive); in experiment [17], > 50 µM (inactive); in [18] it was > 50 µM (inactive). The GI50 in [19] is > 50 µM (inactive).
For the compound `CC(=O)C1(C(=O)C(=[N+]=[N-])S(=O)(=O)c2ccccc2)CC1`, the GI50 was > 100 µM (inactive) in experiment [1]; 80.4 µM (inactive) in experiment [2]; > 100 µM (inactive) in experiment [3]; > 100 µM (inactive) in experiment [4]; > 100 µM (inactive) in experiment [5]; > 100 µM (inactive) in experiment [6]. The GI50 in [7], in experiment [8], in experiment [9], in [10], in experiment [11] and in experiment [13] was > 100 µM (inactive) throughout. Besides, the GI50 is > 100 µM (inactive) in [14]; > 100 µM in experiment [15]; > 100 µM (inactive) in experiment [16]; 83.8 µM (inactive) in [17]; > 100 µM (inactive) in [18]; > 100 µM (inactive) in experiment [19]. Further, the GI50 in experiment [20] was > 100 µM (inactive).
Take `CCOc1ccc(NC(=O)/C(=C\c2ccc(C)cc2)C(C)=O)cc1`: the GI50 in experiment [1], in experiment [2], in experiment [4], in experiment [5], in experiment [6] and in [7] was > 100 µM (inactive) in each case. For the same compound, the GI50 is > 100 µM (inactive) in [8]; < 0.01 µM (active) in experiment [9]; > 100 µM (inactive) in experiment [10]; > 100 µM (inactive) in experiment [11]; > 100 µM (inactive) in experiment [12]; > 100 µM (inactive) in [13]. Moreover, the GI50 in experiment [14] was > 100 µM (inactive); in experiment [15], > 100 µM; in experiment [16] it was > 100 µM (inactive); in experiment [17], > 100 µM (inactive); in experiment [18], > 100 µM (inactive); in experiment [19], > 100 µM (inactive). Moreover, the GI50 in experiment [20] is > 100 µM (inactive).
With `CCCCCCCCCCCc1noc2c1C(=O)C(O)CC2` (centres undefined), the GI50 in [1] was 24.1 µM (inactive); in [2], 17.2 µM (inactive); in experiment [3], 20 µM (inactive); in experiment [4] it was 21.2 µM (inactive); in [5] it was 16.3 µM (inactive); in experiment [6], 50 µM (inactive). For the same compound, the GI50 in [7] was 20.5 µM (inactive); in experiment [8], 16.1 µM (inactive); in experiment [9], 27.2 µM (inactive); in experiment [11] it was 18.2 µM (inactive); in experiment [12], 32.8 µM (inactive); in experiment [13], 18.9 µM (inactive). Besides, the GI50 is 56.6 µM (inactive) in [14]; 20.7 µM in [15]; 14.6 µM (inactive) in experiment [16]; 22.3 µM (inactive) in [17]; 22.1 µM (inactive) in [18]; 17.9 µM (inactive) in [19]. In experiment [20], the GI50 is 17.5 µM (inactive).
For the compound `COc1cc(/C=C2\N=C(c3ccccc3)N(c3ccc(S(=O)(=O)Nc4nccs4)cc3)C2=O)ccc1O`, the GI50 in experiment [1] is 62.8 µM (inactive); in experiment [2], 55.8 µM (inactive); in [3], > 100 µM (inactive); in experiment [4] it was > 100 µM (inactive); in [5], > 100 µM (inactive); in experiment [6], > 100 µM (inactive). The GI50 in experiment [7] was 50.4 µM (inactive); in experiment [8], 71 µM (inactive); in experiment [9] it was 59.7 µM (inactive); in [11], > 100 µM (inactive); in experiment [12], > 100 µM (inactive); in experiment [13] it was > 100 µM (inactive). Besides, the GI50 is > 100 µM (inactive) in [14]; 57.5 µM in experiment [15]; 75.5 µM (inactive) in [16]; > 100 µM (inactive) in experiment [17]; > 100 µM (inactive) in experiment [18]; > 100 µM (inactive) in experiment [19]. The GI50 in [20] was > 100 µM (inactive).
Turning to `CS(=O)(=O)NNS(=O)(=O)c1cccc([N+](=O)[O-])c1`, the GI50 in [1], in [2], in experiment [3], in [4], in [5] and in [6] was > 100 µM (inactive) throughout. For the same compound, the GI50 in experiment [7], in [8], in experiment [9], in experiment [10], in [12] and in experiment [13] was > 100 µM (inactive) throughout. The GI50 in [14] was > 100 µM (inactive); in experiment [15] it was > 100 µM; in experiment [16], > 100 µM (inactive); in experiment [17], > 100 µM (inactive); in experiment [18], > 100 µM (inactive); in [19] it was > 100 µM (inactive).
In the case of `COC(OC)c1cccc2c1C(=O)CCC1(O)c3ccccc3C1C2` (centres undefined), the GI50 in experiment [1] is > 100 µM (inactive); in experiment [2], 55.5 µM (inactive); in [4], 42.1 µM (inactive); in experiment [5], 78.9 µM (inactive); in experiment [6], > 100 µM (inactive); in [7] it was > 100 µM (inactive). Besides, the GI50 in [8] is 83.8 µM (inactive); in experiment [9] it was > 100 µM (inactive); in experiment [10] it was > 100 µM (inactive); in experiment [11], > 100 µM (inactive); in experiment [13], > 100 µM (inactive); in [14] it was > 100 µM (inactive). Also, the GI50 in experiment [15] was > 100 µM; in [17], 65.5 µM (inactive); in experiment [18], > 100 µM (inactive); in experiment [19], > 100 µM (inactive); in experiment [20], 7.52 µM (inactive).
Turning to `C[C@]12CCC3c4ccc(OC(=O)c5ccccc5)cc4CC[C@H]3C1CC[C@@H]2OC(=O)C12OC1CCC2=O` (some centres undefined), the GI50 is 13.7 µM (inactive) in experiment [1]; 2.07 µM (inactive) in [2]; 4.26 µM (inactive) in experiment [3]; 12.3 µM (inactive) in [4]; 4.73 µM (inactive) in experiment [5]; 4.63 µM (inactive) in experiment [6]. Also, the GI50 was 2.31 µM (inactive) in [7]; 14.9 µM (inactive) in experiment [8]; 3.31 µM (inactive) in [9]; 23.7 µM (inactive) in experiment [10]; 8.38 µM (inactive) in [11]; 4.53 µM (inactive) in experiment [13]. Also, the GI50 in experiment [14] was 18.7 µM (inactive); in [15], 5.55 µM; in experiment [16], 2.8 µM (inactive); in [17], 2.32 µM (inactive); in experiment [18], 20.5 µM (inactive); in experiment [19], 2.67 µM (inactive). Also, the GI50 in [20] was 3.13 µM (inactive).
